Assay results from US12077503B2, “Substituted cyclic amides and their use as herbicides” (FMC CORPORATION, priority 2015, dated 2024).

Assays:
Type in all cases: in vivo
rice (Oryra sativa) = assay: Test B flooded paddy test; settings: Oryza sativa, 250 g ai/ha, Flood; 0 to 100 scale where 0 is no effect and 100 is complete control; read-out: Rice plant response rating
Procedure, shortened: (§1)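 Percent control, visually estimated after 13–15 d in the greenhouse on a 0–100 basis, compares treated pots with untreated ones; compound was put into paddy water 3 cm above the soil when plants had two leaves.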

[1] = tested on: barnyardgrass (Echinochloa crus-galli); assay: Test B flooded paddy test; settings: Echinochloa crus-galli, 250 g ai/ha, Flood; 0 to 100 scale where 0 is no effect and 100 is complete control; read-out: Barnyardgrass plant response rating
Procedure, shortened: as §1

[2] = tested on: sedge, umbrella (small-flower umbrella sedge, Cyperus difformis); assay: Test B flooded paddy test; settings: Cyperus difformis, 250 g ai/ha, Flood; 0 to 100 scale where 0 is no effect and 100 is complete control; read-out: Sedge, Umbrella plant response rating
Procedure, shortened: as §1

[3] = tested on: ducksalad (Heteranthera limosa); assay: Test B flooded paddy test; settings: Heteranthera limosa, 250 g ai/ha, Flood; 0 to 100 scale where 0 is no effect and 100 is complete control; read-out: Ducksalad plant response rating
Procedure, shortened: as §1

[4] = tested on: pigweed (Amaranthus retroflexus); assay: Test A preemergence; settings: Amaranthus retroflexus, pre-emergence, 240 h, 0 to 100 scale where 0 is no effect and 100 is complete control, read-out: Pigweed plant response rating; for pest or weed control at 31 g/ha: 31 g ai/ha, Preemergence; for pest or weed control at 125 g/ha: 125 g ai/ha, preemergence, approx. 10 d
[5] = tested on: barnyardgrass (Echinochloa crus-galli); assay: Test A preemergence; settings: Echinochloa crus-galli, pre-emergence, 240 h, 0 to 100 scale where 0 is no effect and 100 is complete control, read-out: Barnyardgrass plant response rating; for pest or weed control at 31 g/ha: 31 g ai/ha, Preemergence; for pest or weed control at 125 g/ha: 125 g ai/ha, preemergence, approx. 10 d
Procedure, shortened: (§2)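 Treatment is preemergence as a directed soil spray after planting, or postemergence at the one- to two-leaf stage, with test chemical in a non-phytotoxic solvent mixture plus surfactant. Plants stay in the greenhouse about 10 d before visual injury scoring on a 0 to 100 scale versus untreated controls.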

[6] = tested on: ryegrass, Italian (Italian ryegrass, Lolium multiflorum); assay: Test A preemergence; settings: Lolium multiflorum, pre-emergence, 240 h, 0 to 100 scale where 0 is no effect and 100 is complete control, read-out: Ryegrass, Italian plant response rating; for pest or weed control at 31 g/ha: 31 g ai/ha, Preemergence; for pest or weed control at 125 g/ha: 125 g ai/ha, preemergence, approx. 10 d
Procedure, shortened: as §2

Kochia (Kochia scoparia) [7] = assay: Test A preemergence; settings: Bassia scoparia, pre-emergence, 240 h, 0 to 100 scale where 0 is no effect and 100 is complete control, read-out: Kochia plant response rating; for pest or weed control at 31 g/ha: 31 g ai/ha, Preemergence; for pest or weed control at 125 g/ha: 125 g ai/ha, preemergence, approx. 10 d
Procedure, shortened: as §2

[8] = tested on: ragweed (common ragweed, Ambrosia elatior); assay: Test A preemergence; settings: Ambrosia artemisiifolia, pre-emergence, 240 h, 0 to 100 scale where 0 is no effect and 100 is complete control, read-out: Ragweed plant response rating; for pest or weed control at 31 g/ha: 31 g ai/ha, Preemergence; for pest or weed control at 125 g/ha: 125 g ai/ha, preemergence, approx. 10 d
Procedure, shortened: as §2

[9] = tested on: giant foxtail (Setaria faberii); assay: Test A preemergence; settings: Setaria faberi, pre-emergence, 240 h, 0 to 100 scale where 0 is no effect and 100 is complete control, read-out: Foxtail, Giant plant response rating; for pest or weed control at 31 g/ha: 31 g ai/ha, Preemergence; for pest or weed control at 125 g/ha: 125 g ai/ha, preemergence, approx. 10 d
Procedure, shortened: as §2

[10] = tested on: pigweed (Amaranthus retroflexus); assay: Test A postemergence; settings: Amaranthus retroflexus, post-emergence, 240 h; for pest or weed control at 125 g/ha: 125 g ai/ha, postemergence, visual injury on 0 to 100 scale (0 no effect, 100 complete control), approx. 10 d, read-out: Pigweed plant response rating; for pest or weed control at 31 g/ha: Postemergence, 31 g ai/ha, visual injury after approx. 10 d, 0 to 100 scale, 0 no effect, 100 complete control, read-out: Plant response rating, Pigweed
Procedure, shortened: as §2

[11] = tested on: barnyardgrass (Echinochloa crus-galli); assay: Test A postemergence; settings: Echinochloa crus-galli, post-emergence, 240 h; for pest or weed control at 125 g/ha: 125 g ai/ha, postemergence, visual injury on 0 to 100 scale (0 no effect, 100 complete control), approx. 10 d, read-out: Barnyardgrass plant response rating; for pest or weed control at 31 g/ha: Postemergence, 31 g ai/ha, visual injury after approx. 10 d, 0 to 100 scale, 0 no effect, 100 complete control, read-out: Plant response rating, Barnyardgrass
Procedure, shortened: as §2

[12] = tested on: Galium (catchweed bedstraw, Galium aparine); assay: Test A postemergence; settings: Galium, post-emergence, 240 h; for pest or weed control at 125 g/ha: 125 g ai/ha, postemergence, visual injury on 0 to 100 scale (0 no effect, 100 complete control), approx. 10 d, read-out: Galium plant response rating; for pest or weed control at 31 g/ha: Postemergence, 31 g ai/ha, visual injury after approx. 10 d, 0 to 100 scale, 0 no effect, 100 complete control, read-out: Plant response rating, Galium
Procedure, shortened: as §2

[13] = tested on: ryegrass, Italian (Italian ryegrass, Lolium multiflorum); assay: Test A postemergence; settings: Lolium multiflorum, post-emergence, 240 h; for pest or weed control at 125 g/ha: 125 g ai/ha, postemergence, visual injury on 0 to 100 scale (0 no effect, 100 complete control), approx. 10 d, read-out: Ryegrass, Italian plant response rating; for pest or weed control at 31 g/ha: Postemergence, 31 g ai/ha, visual injury after approx. 10 d, 0 to 100 scale, 0 no effect, 100 complete control, read-out: Plant response rating, Ryegrass, Italian
Procedure, shortened: as §2

Kochia (Kochia scoparia) [14] = assay: Test A postemergence; settings: Bassia scoparia, post-emergence, 240 h; for pest or weed control at 125 g/ha: 125 g ai/ha, postemergence, visual injury on 0 to 100 scale (0 no effect, 100 complete control), approx. 10 d, read-out: Kochia plant response rating; for pest or weed control at 31 g/ha: Postemergence, 31 g ai/ha, visual injury after approx. 10 d, 0 to 100 scale, 0 no effect, 100 complete control, read-out: Plant response rating, Kochia
Procedure, shortened: as §2

[15] = tested on: blackgrass (Alopecurus myosuroides); assay: Test A postemergence; settings: Alopecurus myosuroides, post-emergence, 240 h; for pest or weed control at 125 g/ha: 125 g ai/ha, postemergence, visual injury on 0 to 100 scale (0 no effect, 100 complete control), approx. 10 d, read-out: Blackgrass plant response rating; for pest or weed control at 31 g/ha: Postemergence, 31 g ai/ha, visual injury after approx. 10 d, 0 to 100 scale, 0 no effect, 100 complete control, read-out: Plant response rating, Blackgrass
Procedure, shortened: as §2

[16] = tested on: wheat (Triticum aestivum); assay: Test A postemergence; settings: Triticum aestivum, post-emergence, 240 h; for plant injury at 125 g/ha: 125 g ai/ha, postemergence, visual injury on 0 to 100 scale (0 no effect, 100 complete control), approx. 10 d, read-out: Wheat plant response rating; for plant injury at 31 g/ha: Postemergence, 31 g ai/ha, visual injury after approx. 10 d, 0 to 100 scale, 0 no effect, 100 complete control, read-out: Plant response rating, Wheat
Procedure, shortened: as §2

corn (Zea mays) = assay: Test A postemergence; settings: Zea mays, post-emergence, 240 h; for plant injury at 125 g/ha: 125 g ai/ha, postemergence, visual injury on 0 to 100 scale (0 no effect, 100 complete control), approx. 10 d, read-out: Corn plant response rating; for Corn plant response rating (crop injury, 0 = no effect, 100 = complete kill) at 31 g/ha: Postemergence, 31 g ai/ha, visual injury after approx. 10 d, 0 to 100 scale, 100 complete control
Procedure, shortened: as §2

[17] = tested on: ragweed (common ragweed, Ambrosia elatior); assay: Test A postemergence; settings: Ambrosia artemisiifolia, post-emergence, 240 h; for pest or weed control at 125 g/ha: 125 g ai/ha, postemergence, visual injury on 0 to 100 scale (0 no effect, 100 complete control), approx. 10 d, read-out: Ragweed plant response rating; for pest or weed control at 31 g/ha: Postemergence, 31 g ai/ha, visual injury after approx. 10 d, 0 to 100 scale, 0 no effect, 100 complete control, read-out: Plant response rating, Ragweed
Procedure, shortened: as §2

[18] = tested on: giant foxtail (Setaria faberii); assay: Test A postemergence; settings: Setaria faberi, post-emergence, 240 h; for pest or weed control at 125 g/ha: 125 g ai/ha, postemergence, visual injury on 0 to 100 scale (0 no effect, 100 complete control), approx. 10 d, read-out: Foxtail, Giant plant response rating; for pest or weed control at 31 g/ha: Postemergence, 31 g ai/ha, visual injury after approx. 10 d, 0 to 100 scale, 0 no effect, 100 complete control, read-out: Plant response rating, Foxtail, Giant
Procedure, shortened: as §2

SMILES | pest or weed control at 250 g/ha (rice (Oryra sativa)) | pest or weed control at 250 g/ha [1] | pest or weed control at 250 g/ha [2] | pest or weed control at 250 g/ha [3] | pest or weed control at 31 g/ha [4] | pest or weed control at 125 g/ha [4] | pest or weed control at 31 g/ha [5] | pest or weed control at 125 g/ha [5] | pest or weed control at 31 g/ha [6] | pest or weed control at 125 g/ha [6] | pest or weed control at 31 g/ha (Kochia (Kochia scoparia) [7]) | pest or weed control at 125 g/ha (Kochia (Kochia scoparia) [7]) | pest or weed control at 31 g/ha [8] | pest or weed control at 125 g/ha [8] | pest or weed control at 31 g/ha [9] | pest or weed control at 125 g/ha [9] | pest or weed control at 125 g/ha [10] | pest or weed control at 31 g/ha [10] | pest or weed control at 125 g/ha [11] | pest or weed control at 31 g/ha [11] | also measured
CN1C[C@H](c2csc3c2CCOC3)[C@@H](C(=O)Nc2ccc(F)c(F)c2F)C1=O [Compound 1077] | 15% | 85% | 0% | 90% | 0% | 0% | 80% | 100% | 0% | 10% | 0% | 20% | 0% | 0% | 100% | 100% | 0% | 0% | 90% | 70% | pest or weed control at 125 g/ha [12]: 70%; pest or weed control at 31 g/ha [12]: 20%; pest or weed control at 125 g/ha [13]: 20%; pest or weed control at 31 g/ha [13]: 0%; pest or weed control at 125 g/ha (Kochia (Kochia scoparia) [14]): 0%; pest or weed control at 31 g/ha (Kochia (Kochia scoparia) [14]): 0%; pest or weed control at 125 g/ha [15]: 30%; pest or weed control at 31 g/ha [15]: 0%; plant injury at 125 g/ha [16]: 0%; plant injury at 31 g/ha [16]: 0%; plant injury at 125 g/ha (corn (Zea mays)): 10%; Corn plant response rating (crop injury, 0 = no effect, 100 = complete kill) at 31 g/ha (corn (Zea mays)): 0%; pest or weed control at 125 g/ha [17]: 0%; pest or weed control at 31 g/ha [17]: 0%; pest or weed control at 125 g/ha [18]: 90%; pest or weed control at 31 g/ha [18]: 50%
CN1C[C@H](c2csc3c2CCOC3)[C@@H](C(=O)Nc2ccccc2S(C)(=O)=O)C1=O [Compound 1078] | 0% | 30% | 0% | 0% | 0% | 0% | 0% | 0% | 0% | 0% | 0% | 0% | 0% | 0% | 0% | 0% | 0% | 0% | 10% | 0% | pest or weed control at 125 g/ha [12]: 0%; pest or weed control at 31 g/ha [12]: 0%; pest or weed control at 125 g/ha [13]: 0%; pest or weed control at 31 g/ha [13]: 0%; pest or weed control at 125 g/ha (Kochia (Kochia scoparia) [14]): 0%; pest or weed control at 31 g/ha (Kochia (Kochia scoparia) [14]): 0%; pest or weed control at 125 g/ha [15]: 0%; pest or weed control at 31 g/ha [15]: 0%; plant injury at 125 g/ha [16]: 0%; plant injury at 31 g/ha [16]: 0%; plant injury at 125 g/ha (corn (Zea mays)): 0%; Corn plant response rating (crop injury, 0 = no effect, 100 = complete kill) at 31 g/ha (corn (Zea mays)): 0%; pest or weed control at 125 g/ha [17]: 0%; pest or weed control at 31 g/ha [17]: 0%; pest or weed control at 125 g/ha [18]: 0%; pest or weed control at 31 g/ha [18]: 0%
